Data published in patent publication US5232913A, “Antihepatopathic composition” (Senju Pharmaceutical Co., Ltd., priority 1990, dated 1993).
Read-outs that look alike come from different tables or passages of the source.

Test system: acetaminophen-induced hepatic impairment
Experiment: Effect on acetaminophen-induced hepatic impairment
Type: in vivo, rat
Details: Male SD rats; for inhibitory effect on acetaminophen-induced hepatic impairment (antihepatopathic effect, in words) / inhibition at 500 µmol/kg / s-GOT % inhibition / s-GPT % inhibition: 0.5 mmole/kg orally; for inhibitory effect on acetaminophen-induced hepatic impairment (antihepatopathic effect, in words): acetaminophen 300 mg/kg i.p.; for s-GOT / s-GPT: test substance 0.5 mmole/kg orally, one hour later acetaminophen 300 mg/kg i.p., mean ± S.E., n = 7-10; for s-GOT / s-GPT / inhibition at 500 µmol/kg / s-GOT % inhibition / s-GPT % inhibition: serum after 24 hours; for inhibition at 500 µmol/kg: Rattus norvegicus; for inhibition at 500 µmol/kg / s-GOT % inhibition / s-GPT % inhibition: one hour before acetaminophen 300 mg/kg i.p., versus physiological saline control
Method: Method; Male SD rats (body weights ca. 180 g) purchased form Japan SLC were used. The test substance was orally administered (0.5 mmole/kg) and one hour later 300 mg/kg of acetaminophen was intraperitoneally administered. After 24 hours, blood was drawn from the abdominal aorta and the serum was separated. Using this serum, s-GOT and GPT were determined.

| SMILES | inhibitory effect on acetaminophen-induced hepatic impairment (antihepatopathic effect, in words) | s-GOT [IU/l] | s-GPT [IU/l] | inhibition at 500 µmol/kg (read-out: s-GOT % inhibition) [%] | inhibition at 500 µmol/kg (read-out: s-GPT % inhibition) [%] | s-GOT % inhibition [%] | s-GPT % inhibition [%] |
| --- | --- | --- | --- | --- | --- | --- | --- |
| N[C@@H](CCC(=O)N[C@@H](CSCCC(=O)O)C(=O)NCC(=O)O)C(=O)O [compound 3, S-(2-Carboxyethyl)glutathione] | significant antihepatopathic effects | 1968 ± 626 | 530 ± 180 | 62.6 | 74.3 | – | – |
| CC(C)COC(=O)C(C)CSCC(NC(=O)CCC(N)C(=O)O)C(=O)NCC(=O)OC(C)C (stereo not drawn) [compound 8, S-(2-Methyl-2-carbiosobutoxyethyl)glutathione isopropyl ester] | significant antihepatopathic effects | 163 ± 89 | 52 ± 29 | – | – | 96.9 | 97.5 |
| CCOC(=O)C(C)CSC[C@H](NC(=O)CC[C@H](N)C(=O)O)C(=O)NCC(=O)O (stereo partly drawn) [compound 2, S-(2-carbethoxypropyl)glutathione] | significant antihepatopathic effects | 841 ± 354 | 195 ± 81 | 84 | 90.5 | – | – |
| CC(CSC[C@H](NC(=O)CC[C@H](N)C(=O)O)C(=O)NCC(=O)O)C(=O)OCc1ccccc1 (stereo partly drawn) [compound 6, S-[2-Methyl-2-carbobenzoxyethyl]glutathione] | – | 2968 ± 824 | 1384 ± 421 | 43.7 | 32.8 | – | – |
| CCOC(=O)C(C)CSCC(NC(=O)CCC(N)C(=O)O)C(=O)NCC(=O)OC(C)C (stereo not drawn) [compound 7, S-(2-Methyl-2-carbethoxyethyl)glutathione isopropyl ester] | significant antihepatopathic effects | 1570 ± 511 | 529 ± 168 | – | – | 70.2 | 74.3 |
| CC(C)OC(=O)CC(C)SC[C@H](NC(=O)CC[C@H](N)C(=O)O)C(=O)NCC(=O)O (stereo partly drawn) [compound 9, S-(1-Methyl-2-carboisopropoxyethyl)glutathione] | significant antihepatopathic effects | 171 ± 71 | 43 ± 21 | 96.8 | 97.9 | – | – |
| CCOC(=O)CCSC[C@H](NC(=O)CC[C@H](N)C(=O)O)C(=O)NCC(=O)O [compound 4, S-(2-Carbethoxyethyl)glutathione] | significant antihepatopathic effects | 1935 ± 530 | 598 ± 226 | 63.3 | 71 | – | – |
| CC(CSC[C@H](NC(=O)CC[C@H](N)C(=O)O)C(=O)NCC(=O)O)C(=O)O (stereo partly drawn) [compound 1, S-(2-carboxypropyl)glutathione] | significant antihepatopathic effects | 1259 ± 424 | 337 ± 117 | 76.1 | 83.6 | – | – |
| CC(C)COC(=O)C(C)CSC[C@H](NC(=O)CC[C@H](N)C(=O)O)C(=O)NCC(=O)O (stereo partly drawn) [compound 5, S-(2-Methyl-2-carboisobutoxyethyl)glutathione] | – | 2972 ± 803 | 1384 ± 417 | – | – | 43.6 | 32.8 |
